The source of these data is ChEMBL document CHEMBL1221239, “Triaryl (Z)-olefins suitable for radiolabeling with carbon-11 or fluorine-18 radionuclides for positron emission tomography imaging of cyclooxygenase-2 expression in pathological disease” (Bioorg Med Chem Lett, 2010).

Molecules are shown by their SMILES.

Test [1] has as its target T1, Prostaglandin G/H synthase 2 (Homo sapiens, UniProt P35354).
T1 sequence (P35354 whole entry): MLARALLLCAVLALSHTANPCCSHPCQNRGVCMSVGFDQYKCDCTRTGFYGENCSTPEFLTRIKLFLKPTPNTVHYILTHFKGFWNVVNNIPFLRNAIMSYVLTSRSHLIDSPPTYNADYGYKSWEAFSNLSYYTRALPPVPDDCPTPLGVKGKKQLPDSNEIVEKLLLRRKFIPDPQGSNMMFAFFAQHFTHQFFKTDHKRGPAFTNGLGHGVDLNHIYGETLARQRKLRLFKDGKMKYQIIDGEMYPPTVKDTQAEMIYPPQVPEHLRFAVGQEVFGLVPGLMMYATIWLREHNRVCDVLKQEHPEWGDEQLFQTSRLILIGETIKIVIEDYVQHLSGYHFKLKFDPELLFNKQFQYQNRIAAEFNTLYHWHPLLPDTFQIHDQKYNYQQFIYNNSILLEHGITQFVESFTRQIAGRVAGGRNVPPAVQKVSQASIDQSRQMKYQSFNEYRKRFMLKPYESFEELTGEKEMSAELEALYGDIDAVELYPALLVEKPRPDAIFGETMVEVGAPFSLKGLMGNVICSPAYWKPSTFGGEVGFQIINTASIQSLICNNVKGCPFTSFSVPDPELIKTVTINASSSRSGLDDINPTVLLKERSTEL
In words: Inhibition of human recombinant COX2 by EIA.

Test [2] has as its target T2, Prostaglandin G/H synthase 1 (Ovis aries, UniProt P05979).
T2 sequence (P05979 whole entry): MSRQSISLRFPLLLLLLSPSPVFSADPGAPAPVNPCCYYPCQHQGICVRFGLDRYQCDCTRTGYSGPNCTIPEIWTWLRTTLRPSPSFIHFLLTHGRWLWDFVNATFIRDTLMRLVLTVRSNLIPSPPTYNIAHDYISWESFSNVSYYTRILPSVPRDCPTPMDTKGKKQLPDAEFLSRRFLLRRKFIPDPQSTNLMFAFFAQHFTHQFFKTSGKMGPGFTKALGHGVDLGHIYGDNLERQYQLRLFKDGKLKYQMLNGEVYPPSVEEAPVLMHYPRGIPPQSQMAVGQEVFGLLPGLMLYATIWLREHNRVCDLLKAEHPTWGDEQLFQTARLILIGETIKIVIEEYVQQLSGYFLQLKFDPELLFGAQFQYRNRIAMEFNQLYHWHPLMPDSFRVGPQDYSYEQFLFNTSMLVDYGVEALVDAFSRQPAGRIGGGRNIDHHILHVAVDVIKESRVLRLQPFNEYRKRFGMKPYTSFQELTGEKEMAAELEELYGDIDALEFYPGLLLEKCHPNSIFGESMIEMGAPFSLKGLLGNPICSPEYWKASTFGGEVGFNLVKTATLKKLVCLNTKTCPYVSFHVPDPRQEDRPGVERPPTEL
Description: Inhibition of ovine COX1 by EIA

Test [3] is described as follows: Selectivity index, ratio of IC50 for ovine COX1 to IC50 for human recombinant COX2.

The term IC50 denotes the midpoint of a concentration-inhibition curve. As for `CS(=O)(=O)c1ccc(C(CCF)=C(c2ccccc2)c2ccccc2)cc1`, the IC50 in test [1] and in test [2] was > 100 µM in each case.

Take `CCCC/C(=C(\c1ccccc1)c1ccc(O)cc1)c1ccc(S(C)(=O)=O)cc1`: the figures for the IC50 in test [1] and in test [2] were 11.8 µM and > 100 µM, respectively. Also, the Ratio IC50 in test [3] is > 8.5.

Turning to `CCCCC(=C(c1ccccc1)c1ccccc1)c1ccc(S(C)(=O)=O)cc1`, the figures for the IC50 in test [1] and in test [2] were 2.7 µM and 9.1 µM, respectively. Moreover, the Ratio IC50 in test [3] amounted to 3.4.

With `CCCC/C(=C(\c1ccccc1)c1ccc(OCCF)cc1)c1ccc(S(C)(=O)=O)cc1`, the figures for the IC50 in test [1] and in test [2] were 22.3 µM and > 100 µM, respectively. Besides, the Ratio IC50 in test [3] is > 4.5.

`CCC(=C(c1ccccc1)c1ccccc1)c1ccc(S(C)(=O)=O)cc1`: the IC50 in test [1] was found to be 1.2 µM; in test [2], 31.6 µM. Besides, the Ratio IC50 in test [3] was 26.3.

`CCCC/C(=C(\c1ccccc1)c1ccc(OC)cc1)c1ccc(S(C)(=O)=O)cc1`: the IC50 is 7.7 µM in test [1] and > 100 µM in test [2]. The Ratio IC50 in test [3] was > 13.

As for `CC/C(=C(\c1ccccc1)c1ccc(OC)cc1)c1ccc(S(C)(=O)=O)cc1`, the IC50 was 10.7 µM in test [1] and > 100 µM in test [2]. In test [3], the Ratio IC50 is > 9.3.
